Experiments:
myeloma cell line JJN3 = experiment: Cell growth inhibition (PrestoBlue) in myeloma cell line JJN3; format: cell-based, Human; details: FIG. 3a
Protocol: Cell Culture. Human myeloma cell lines JJN3 were purchased from ATCC, KMM-1 was procured from the Japanese Collection of Research Bioresources Cell Bank (JCBR, Japan). The MM1.R cell line was a kind gift from Dr. Jonathan Keats, Translational Genomics Research Institute (TGen, USA). JJN3 cells were grown in RPMI-1640 medium (Sigma Aldrich, USA) supplemented with 5% heat inactivated FBS (Gibco), 1% I-glutamine (Gibco), 5 mM HEPES, and 1% Penstrep (Sigma Aldrich, USA); KMM-1 cells in RPMI-1640 media supplemented with 10% FBS, 1% L-glutamine (Gibco) and 1% Penstrep; MM1.R cells in advanced RPMI-1640 medium with 4% FBS and 1% Glutamax, in a humidified 5% CO2 incubator at 37° C. Cell lines were tested regularly for mycoplasma and kept free of contamination. Lenalidomide, terameprocol (Sigma Aldrich, USA) and pomalidomide from Selleck chemicals were used.
Cell Growth Inhibition Studies. A 48-h cell growth inhibition assay was conducted using the PrestoBlue cell viability kit (Invitrogen, ON, Canada). Cells were plated at 10,000 cells/well in 96-well tissue culture plates. The effect of single inhibitor and inhibitor combination treatments were done using appropriate vehicle and medium (blank) controls. Cells were incubated at 37° C. in a 5% CO2 incubator for 48 h or 72 h depending on the chosen duration of the study. At the end of the treatment, cell growth inhibition was determined by the PrestoBlue assay. […] Cell growth was assessed fluorometrically at 37° C. using the BioTek Synergy H4 Hybrid Multi-Mode microplate reader (535 nm excitation; 615 nm emission) with Gen 2.06 analyses software. Fluorescence values were corrected for any background fluorescence of the medium and test fractions by subtracting fluorescence readings of the appropriate blanks from the mean fluorescence readings of the untreated control and test wells. The percentage inhibition of cell growth was then defined as 1−(mean test well fluorescence/mean control well fluorescence)×100.

myeloma cell = experiment: Myeloma cell growth inhibition, combination treatments (FIG. 4, FIG. 5); format: cell-based, Human
Protocol: Cell Growth Inhibition Studies. A 48-h cell growth inhibition assay was conducted using the PrestoBlue cell viability kit (Invitrogen, ON, Canada). Cells were plated at 10,000 cells/well in 96-well tissue culture plates. The effect of single inhibitor and inhibitor combination treatments were done using appropriate vehicle and medium (blank) controls. Cells were incubated at 37° C. in a 5% CO2 incubator for 48 h or 72 h depending on the chosen duration of the study. At the end of the treatment, cell growth inhibition was determined by the PrestoBlue assay. In brief, 10% PrestoBlue reagent was added to untreated and treated cells in […] in each well and incubated at 37° C. for one and a half hours. Cell growth was assessed fluorometrically at 37° C. using the BioTek Synergy H4 Hybrid Multi-Mode microplate reader (535 nm excitation; 615 nm emission) with Gen 2.06 analyses software. Fluorescence values were corrected for any background fluorescence of the medium and test fractions by subtracting fluorescence readings of the appropriate blanks from the mean fluorescence readings of the untreated control and test wells. The percentage inhibition of cell growth was then defined as 1−(mean test well fluorescence/mean control well fluorescence)×100.

[1] = test system: IKZF1, IKZF3, IRF4, MYC and HDAC1 gene expression in human myeloma cells (KMM-1); experiment: RNA Seq gene expression profiling in KMM-1 myeloma cells; format: cell-based; details: in comparison with untreated and lenalidomide (10 uM) treated conditions, FIG. 1
Protocol: RNA from myeloma cells (treated and untreated) was isolated and checked for integrity using the Agilent Bioanalyzer 2100 system (Agilent Technologies, Santa Clara, Calif., USA) and quantified using a Qubit fluorometric assay (Thermo Fisher Scientific, USA). RNA Seq was carried out at the Genome Quebec, Montreal, Canada. […] The remaining steps of library preparation were done using the NEBNext Ultra II DNA Library Prep Kit for Illumina (New England BioLabs). Adapters and PCR primers were purchased from New England BioLabs. Libraries were quantified using the Quant-iT™ PicoGreen® dsDNA Assay Kit (Life Technologies) and the Kapa Illumina GA with Revised Primers-SYBR Fast Universal kit (Kapa Biosystems). Average size fragment was determined using a LabChip GX (PerkinElmer) instrument. All bioinformatics analyses were done by the Canadian Centre for Computational Genomics (C3G)-Montréal Node, Canada.

[2] = test system: HDAC1, Sp1, IRF4, IKZF1 and c-MYC protein in human myeloma cell lines JJN3 and MMIR; experiment: Western blots of key protein targets in myeloma cell lines; format: cell-based; details: 1, 5, 10 and 25 uM, in comparison with panobinostat, FIG. 2a, 2b
Protocol: Western/Immunoblotting Methods. Protein lysates were obtained from untreated and CAPE (2) analog-treated myeloma cells and the concentration of proteins was determined by the BCA method. Proteins were resolved in a 4-20% criterion gel followed by electrophoretic transfer to nitrocellulose membrane (Bio-Rad Laboratories Inc., Germany). Membranes were then blocked with 5% skimmed milk in tris-buffered saline-tween (TBS-T) for 1 h and then, after rapid TBS-T washes, incubated overnight at 4° C. with a primary antibody of interest. Goat polyclonal anti-IRF4, rabbit polyclonal anti-Ikaros (Santa Cruz Biotechnology, Santa Cruz, Calif.); mouse monoclonal anti-Caspase-8, rabbit anti-Caspase-3, cleaved Caspase-3, anti-Sp1 (Cell Signaling Technology, Whitby, ON), rabbit monoclonal anti-MYC and mouse monoclonal β-actin antibody (Abcam, Cambridge, Mass.) were the primary antibodies used for this study. Following this, the membrane was incubated with HRP conjugated secondary antibodies. Protein levels in immunoblots were detected with an Amersham™ ECL™ Prime western blotting detection kit (GE Healthcare, ON, Canada), the imaging was performed using the ChemiDoc™ MP imaging system (Bio-Rad Laboratories, USA) and densitometry analyses were done using the Image Lab 5.0 software.

Structure (SMILES): O=C(/C=C/c1cc(O)ccc1O)OCCCc1ccccc1 [As26]
- myeloma cell growth inhibition (myeloma cell line JJN3; combination 2.5 μM As26 with 0.001 nM panobinostat): 54.4%
- myeloma cell growth inhibition (myeloma cell line JJN3; combination 5 μM As26 with 0.001 nM panobinostat): 69.8%
- myeloma cell growth inhibition, combination versus single agents (myeloma cell; Sp1 inhibitor Terameprocol (TMP) and As26 combination, FIG. 5): augmented myeloma cell growth inhibition
- myeloma cell growth inhibition, combination versus single agents (myeloma cell; Trichostatin A and IC 50 As26 combination treatment, FIG. 4): augmented myeloma cell growth inhibition

Structure (SMILES): O=C(/C=C/c1ccc(O)c(O)c1)OCCc1ccccc1 [CAPE, caffeic acid phenethyl ester]
- gene expression of IKZF1, IKZF3, IRF4, MYC and HDAC1 ([1]; 50 uM): downregulated
- protein levels of HDAC1, Sp1, IRF4, IKZF1 and c-MYC [2]: lowered

Structure (SMILES): O=C(/C=C/c1ccc(O)c(O)c1)OCCCc1ccccc1 [GL8]
- gene expression of IKZF1, IKZF3, IRF4, MYC and HDAC1 ([1]; 25 uM): downregulated
- gene expression of IKZF1, IKZF3, IRF4, MYC and HDAC1 ([1]; 50 uM): downregulated

Structure (SMILES): Cc1[nH]c2ccccc2c1CCNCc1ccc(/C=C/C(=O)NO)cc1 [panobinostat, reference compound]
- inhibition at 1 pM (myeloma cell line JJN3; Homo sapiens, JJN-3, panobinostat alone, 0.001 nM): 17 ± 3%

— patent US20230115120A1, “COMPOSITIONS, METHODS AND USES OF COMBINATION TREATMENTS FOR BLOOD CANCERS” (University of New Brunswick, priority 2020, published 2023)
